Measured values: patent US6906098B2, “Mixed steroidal 1,2,4,5-tetraoxane compounds and methods of making and using thereof” (priority 2002, dated 2005)
Values after ≈ are worked out from the molar mass of the structure shown. Values joined by “and” are separate entries in the source; they are usually repeats but may differ in a detail not shown here. Identical values can stand only once. Like-named read-outs stand apart in the source and are kept apart here.

Key:
[1] = system: Plasmodium falciparum chloroquine-susceptible strain D6; assay: In vitro antimalarial drug susceptibility assay (radiolabeled hypoxanthine incorporation), strain D6; assay type: cell-based; details: for Strain D6 IC50: growth inhibition, chloroquine-susceptible strain D6, 66 h incubation; for IC50: Plasmodium falciparum, D6, 66 h, read-out: Strain D6 IC50, growth inhibition, chloroquine-susceptible strain D6, 66 h incubation
[2] = system: Plasmodium falciparum chloroquine-resistant strain W2; assay: microbe, parasite or virus in culture; assay type: cell-based; details: for Strain W2 IC50: growth inhibition, chloroquine-resistant strain W2, 66 h incubation; for IC50: Plasmodium falciparum, W2, 66 h, read-out: Strain W2 IC50, growth inhibition, chloroquine-resistant strain W2, 66 h incubation
[3] = system: D6 and W2 P. falciparum clones; assay type: cell-based, Plasmodium falciparum; details: for Resistance Index: IC50 (W2)/IC50 (D6) ratio; for times more active than bis(1,1-dioxy-2-methylcyclohexane): antimalarial activity versus literature tetraoxane
[4] = system: Mycobacterium tuberculosis H37Rv (ATCC 27294); assay: Primary screen, Microplate Alamar Blue Assay (MABA), percent inhibition; assay type: cell-based; details: Mycobacterium tuberculosis, primary screening at 6.25 μg/ml
In short: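 Single-concentration screen at 6.25 μg/ml (or molar equivalent of the heaviest congener in a series) against H37Rv grown in BACTEC 12B medium. Growth read by Microplate Alamar Blue Assay, reported as percent inhibition.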

[5] = system: M. tuberculosis H37Rv; assay: Minimum inhibitory concentration (MIC) in the MABA; assay type: cell-based, Mycobacterium tuberculosis; details: Mycobacterium tuberculosis, H37RV
In short: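 Run under the NIAID TAACF screening program against M. tuberculosis by fluorescence read-out. MIC taken as the lowest concentration giving 90% reduction in fluorescence relative to controls.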

[6] = system: lung NCI-H460, breast MCF7, CNS SF-268; assay: 3-cell line one dose primary anticancer assay (NCI); assay type: cell-based, human; details: growth percentage after 48 hours, at 100 μM
Experimental: In preliminary tests, four compounds (1B14a, 1C44, 1C45, and 1C46) were chosen by NIH-NCI for in vitro screening. See Drug discovery and development program, National Cancer Institute, Bethesda, (NCI), http://dtp.nci.nih.gov. All tetraoxanes were evaluated in the 3-cell line (lung—NCI-H460, breast—MCF7, CNS-SF-268) one dose primary anticancer assay: growth percentage after 48 hours, at 100 μM concentration of tested compound. Two compounds were eliminated at this step (1B14a and 1C46), while the acid 1C44 and primary amide 1C45 were evaluated against the full panel of 60 human tumor cell lines starting with 10^−4 M concentration of investigated compounds.

[7] = system: VERO cells
[8] = system: VERO cells; assay: cells; details: Chlorocebus sabaeus, Table 5
[9] = in vitro; details: African green monkey, Cytotoxcity (IC50)
[10] = system: M. avium strains 100, 101, 108, 109, 116; assay: M. avium MIC, Microtiter; assay type: cell-based, Mycobacterium avium
[11] = Table 3, H37Rv, read-out: Inhibition (%)
[12] = Table 5, Alamar assay, read-out: % Inhib
[13] = Table 5, Alamar assay, M. tuberculosis H37Rv, read-out: MIC
[14] = ratio of IC50 in VERO cells to MIC (M. tuberculosis H37Rv)
[15] = Table 3, VERO cell line, 72 hours exposure

| Compound | Strain D6 IC50 [1] [µg/mL] | Strain W2 IC50 [2] [µg/mL] | Resistance Index [3] | inhibition at 6.25 µg/mL [4, 11] [%] | inhibition at 6.25 µg/mL [4, 12] [%] | MIC ([5]; Table 3, H37Rv, read-out: MIC) | MIC [5, 13] [µg/mL] | IC50 [1] [µg/mL] | IC50 [2] [µg/mL] | melting point [°C] | SI (selectivity index) [7, 14] | IC50 [8] [µg/mL] | IC50 [9, 15] | further results |
| --- | --- | --- | --- | --- | --- | --- | --- | --- | --- | --- | --- | --- | --- | --- |
| COC(=O)CCC(C)[C@H]1CCC2C3C(C[C@H](OC(C)=O)[C@@]21C)[C@@]1(C)CCC2(C[C@H]1C[C@H]3OC(C)=O)OOC1(CCC(c3ccccc3)CC1)OO2 (single isomer, unassigned) [Compound 1B14a, Methyl 7α,12α-diacetoxy-5β-cholan-24-oate-3-spiro-6′-(1′,2′,4′,5′-tetraoxacyclohexane)-3′-spiro-1″-((4″R or S)- and (4″S or R)-phenyl)cyclohexane] | 0.01256 | 0.01172 | 0.93 | 37 | 37 | > 6.25 µg/mL | > 6.25 |  |  |  |  |  |  | outcome of one dose primary anticancer assay [6]: eliminated |
| COC(=O)CCC(C)[C@H]1CCC2C3C(C[C@H](OC(C)=O)[C@@]21C)[C@@]1(C)CCC2(C[C@H]1C[C@H]3OC(C)=O)OOC1(CCCCC1C)OO2 (stereo partly drawn) [8d/1B06, Methyl 7α,12α-Diacetoxy-5β-cholan-24-oate-3-spiro-6′-(1′,2′,4′,5′-tetraoxacyclohexane)-3′-spiro-1″-(2″-methyl)cyclohexane] |  |  | 0.58 |  | 29 |  | > 6.25 | 0.0175 (≈ 0.027 µM) | 0.0102 (≈ 0.0156 µM) | 204 to 207 |  |  |  | times more active than bis(1,1-dioxy-2-methylcyclohexane) [3]: about 2 times |
| CCCNC(=O)CC[C@@H](C)[C@H]1CC[C@H]2[C@@H]3[C@H](OC(C)=O)C[C@@H]4CC(OO)(OO)CC[C@]4(C)[C@H]3C[C@H](OC(C)=O)[C@]12C |  |  |  |  |  |  |  |  |  | 120 to 129 |  |  |  |  |
| COC(=O)CCC(C)[C@H]1CCC2C3C(C[C@H](OC(C)=O)[C@@]21C)[C@@]1(C)CCC2(C[C@H]1C[C@H]3OC(C)=O)OOC1(OO2)C(C)CCCC1C (stereo partly drawn) [8e/1B07, Methyl 7α,12α-diacetoxy-5β-cholan-24-oate-3-spiro-6′-(1′,2′,4′,5′-tetraoxacyclohexane)-3′-spiro-1″-(2″,6″-dimethyl)cyclohexane] |  |  | 11.45 |  | 0 |  | > 6.25 | 0.0207 (≈ 0.0312 µM) | 0.237 (≈ 0.357 µM) | 213 to 215 |  |  |  | antimalarial activity in words ([3]; D6 and W2 clones, Table 2): inactive |
| CC(=O)O[C@H]1CC2C(C3CC[C@H](C(C)CCC(N)=O)[C@]31C)[C@H](OC(C)=O)C[C@@H]1CC3(CC[C@]21C)OOC1(CCC(C)CC1)OO3 (stereo partly drawn) [17/1C26, 7α,12α-Diacetoxy-5β-cholan-24-amide-3-spiro-6′-(1′,2′,4′,5′-tetraoxacyclohexane)-3′-spiro-1″-((4″R)-methyl)cyclohexane] |  |  | 0.50 | 99 | 99 | 3.13 µg/mL and 4.94 µM | 3.13 (≈ 4.94 µM) |  |  |  | 1.1 | 3.49 (≈ 5.51 µM) | 3.49 µg/mL and 5.51 µM | Strain D6 IC50 ([1]; listed as 17): 0.00074 µg/mL; Strain W2 IC50 ([2]; listed as 17): 0.00037 µg/mL; Resistance Index ([3]; listed as 17): 0.50; times more active than parent methyl ester 8g ([3]; antimalarial activity): ca. 9 times; times as active as arteether ([3]; antimalarial activity in vitro): 2.4 times; times more active than artelinic acid ([3]; antimalarial activity in vitro): ca. 6 times; SI (IC50 (Vero)/IC50 (D6 or W2)) ([7]; cytotoxicity in Vero cells versus antimalarial activity): 9 500 |
| CC(=O)O[C@H]1CC2C(C3CC[C@H](C(C)CCC(N)=O)[C@]31C)[C@H](OC(C)=O)C[C@@H]1CC3(CC[C@]21C)OOC1(CCCCC1C)OO3 (stereo partly drawn) [13/1C22, 7α,12α-Diacetoxy-5β-cholan-24-amide-3-spiro-6′-(1′,2′,4′,5′-tetraoxacyclohexane)-3′-spiro-1″-(2″-methyl)cyclohexane] |  |  | 0.64 |  | 100 |  | 0.2 (≈ 0.316 µM) | 0.011 (≈ 0.0173 µM) | 0.00705 (≈ 0.0111 µM) |  |  |  |  | times more active than bis(1,1-dioxy-2-methylcyclohexane) [3]: ca. 3.5 times; MIC ([10]; M. avium strain 101, MIC dilution 0.25-32): >32 µg/mL; MIC ([10]; M. avium strain 108, MIC dilution 0.25-32): >32 µg/mL; MIC ([10]; M. avium strain 109, MIC dilution 0.25-32): >32 µg/mL; MIC ([10]; M. avium strain 116, MIC dilution 0.25-32): >32 µg/mL; MIC ([10]; Mycobacterium avium, M. avium strain 100, MIC dilution 0.25-32, read-out: MIC): > 32 µg/mL |
| CNC(=O)CCC(C)[C@H]1CCC2C3C(C[C@H](OC(C)=O)[C@@]21C)[C@@]1(C)CCC2(C[C@H]1C[C@H]3OC(C)=O)OOC1(CCC(c3ccccc3)CC1)OO2 (single isomer, unassigned) [Compound 1C46, N-Methyl-7α,12α-Diacetoxy-5β-cholan-24-amide-3-spiro-6′-(1′,2′,4′,5′-tetraoxacyclohexane)-3′-spiro-1″-((4″R or S)-phenyl)cyclohexane] | 0.00883 | 0.00696 | 0.79 |  | 71 |  | > 6.25 |  |  |  |  |  |  | inhibition at 6.25 µg/mL ([4]; Table 3, H37Rv): 71%; MIC ([5]; Table 3): 6.25 µg/mL (≈ 8.8 µM); outcome of one dose primary anticancer assay [6]: eliminated |
| CCCNC(=O)CCC(C)[C@H]1CCC2C3C(C[C@H](OC(C)=O)[C@@]21C)[C@@]1(C)CCC2(C[C@H]1C[C@H]3OC(C)=O)OOC1(CCC(C)CC1)OO2 (stereo partly drawn) [20/1C29, N-(n-Propyl)-7α,12α-diacetoxy-5β-cholan-24-amide-3-spiro-6′-(1′,2′,4′,5′-tetraoxacyclohexane)-3′-spiro-1″-((4″R)-methyl)cyclohexane] | 0.00218 | 0.00258 | 1.18 | 94 |  | 6.25 µg/mL and 9.25 µM | 6.25 (≈ 9.25 µM) |  |  |  | 1.3 | 8.34 (≈ 12.3 µM) | 8.34 µg/mL and 12.3 µM |  |
| CCNC(=O)CCC(C)[C@H]1CCC2C3C(C[C@H](OC(C)=O)[C@@]21C)[C@@]1(C)CCC2(C[C@H]1C[C@H]3OC(C)=O)OOC1(CCC(C)CC1)OO2 (stereo partly drawn) [19/1C28, N-Ethyl-7α,12α-diacetoxy-5β-cholan-24-amide-3-spiro-6′-(1′,2′,4′,5′-tetraoxacyclohexane)-3″-spiro-1″-((4″R)-methyl)cyclohexane] | 0.00384 | 0.0026 | 0.68 | 98 |  | 3.13 µg/mL and 4.73 µM | 3.13 (≈ 4.73 µM) |  |  |  | 1.7 | 5.37 (≈ 8.11 µM) | 5.37 µg/mL and 8.11 µM |  |
| CO[C@H]1/C=C/O[C@@]2(C)Oc3c(C)c(O)c4c(O)c(c(/C=N/N5CCN(C)CC5)c(O)c4c3C2=O)NC(=O)/C(C)=C\C=C\[C@H](C)[C@H](O)[C@@H](C)[C@@H](O)[C@@H](C)[C@H](OC(C)=O)[C@@H]1C [Rifampin, reference compound] |  |  |  |  |  | 0.12 µg/mL and 0.15 µM |  |  |  |  |  | > 100 |  | SI (selectivity index) [7]: > 800; IC50 [9]: 111 µg/mL and 134 µM |
